The subject of the test is P388 leukemia ip, CD2F1 mice, survival T/C. In words: NCI In Vivo Anticancer Drug Screen. Data for tumor model P388 Leukemia (intraperitoneal) in CD2F1 (CDF1) mice. The following applies: endpoint: median survival time, higher = longer survival. The method, boiled down:
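Mice carrying the transplanted tumor received test compound or vehicle. Survival was recorded in each group, and the value is the treated-group measurement divided by that of the vehicle-treated control group.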

[1] abbreviates: dose: 50.0 mg/kg/injection, schedule: Q01DX005 (ip), vehicle: Klucel (hydroxypropylcellulose) (HPC).
[2] abbreviates: dose: 100.0 mg/kg/injection, schedule: Q01DX005 (ip), vehicle: Klucel (hydroxypropylcellulose) (HPC).

“And” between values parts separate entries of the source, which are not always exact repeats. Equal entries are not always repeated. Toxic doses and inconclusive results are not listed.

As to `CC(=O)Nc1ccn(C2OC(COC(C)=O)C(OC(C)=O)C2OC(C)=O)c(=O)n1` (stereo not given), the T/C (dose: 62.5 mg/kg/injection, schedule: Q01DX009 (ip), vehicle: Klucel (hydroxypropylcellulose) (HPC)) was 102 % of control; the T/C (dose: 125.0 mg/kg/injection, schedule: Q01DX009 (ip), vehicle: Klucel (hydroxypropylcellulose) (HPC)) is 119 % of control; the T/C (dose: 250.0 mg/kg/injection, schedule: Q01DX009 (ip), vehicle: Klucel (hydroxypropylcellulose) (HPC)) was 157 % of control; the T/C (dose: 500.0 mg/kg/injection, schedule: Q01DX009 (ip), vehicle: Klucel (hydroxypropylcellulose) (HPC)) was 155 % of control; the T/C (dose: 1000.0 mg/kg/injection, schedule: Q01DX009 (ip), vehicle: Klucel (hydroxypropylcellulose) (HPC)) is 174 % of control.
Take `CC(=O)OC(C)(C)/C=C/C(=O)[C@](C)(O)[C@H]1[C@H](O)C[C@@]2(C)[C@@H]3CC=C4[C@@H](C[C@H](O)C(=O)C4(C)C)[C@]3(C)C(=O)C[C@]12C`: the T/C by setting is: (dose: 0.13 mg/kg/injection, schedule: Q01DX010 (ip), vehicle: saline) 95 % of control; (dose: 0.25 mg/kg/injection, schedule: Q01DX009 (ip), vehicle: saline with Tween-80) 104 % of control; (dose: 0.25 mg/kg/injection, schedule: Q01DX010 (ip), vehicle: saline) 104 % of control; (dose: 0.5 mg/kg/injection, schedule: Q01DX009 (ip), vehicle: saline with Tween-80) 100 % of control; (dose: 0.5 mg/kg/injection, schedule: Q01DX010 (ip), vehicle: saline) 100 % of control; (dose: 0.62 mg/kg/injection, schedule: Q01DX009 (ip), vehicle: saline) 113 % of control. Besides, the T/C (dose: 1.0 mg/kg/injection, schedule: Q01DX009 (ip), vehicle: saline with Tween-80) was 109 % of control; the T/C (dose: 1.0 mg/kg/injection, schedule: Q01DX010 (ip), vehicle: saline) is 104 % of control; the T/C (dose: 1.25 mg/kg/injection, schedule: Q01DX009 (ip), vehicle: saline) was 117 % of control; the T/C (dose: 2.0 mg/kg/injection, schedule: Q01DX009 (ip), vehicle: saline with Tween-80) is 118 % of control; the T/C (dose: 2.5 mg/kg/injection, schedule: Q01DX009 (ip), vehicle: saline) is 117 % of control; the T/C (dose: 5.0 mg/kg/injection, schedule: Q01DX009 (ip), vehicle: saline) was 113 % of control. The T/C (dose: 10.0 mg/kg/injection, schedule: Q01DX009 (ip), vehicle: saline) is 113 % of control.
In the case of `NC(=O)SCC(=O)Nc1ccc2ncccc2c1`, the T/C is 100 % of control (dose: 100.0 mg/kg/injection, schedule: Q01DX009 (ip), vehicle: saline sonified); 100 % of control (dose: 100.0 mg/kg/injection, schedule: Q04DX003 (ip), vehicle: saline sonified); 113 % of control (dose: 200.0 mg/kg/injection, schedule: Q01DX009 (ip), vehicle: saline sonified); 100 % of control (dose: 200.0 mg/kg/injection, schedule: Q04DX003 (ip), vehicle: saline sonified); 90 % of control (dose: 400.0 mg/kg/injection, schedule: Q01DX009 (ip), vehicle: saline sonified); 104 % of control (dose: 400.0 mg/kg/injection, schedule: Q04DX003 (ip), vehicle: saline sonified).
In the case of `C=CCC(C(C)=O)C(C)=NCCN=C(C)C(CC=C)C(C)=O.[Cu]` (stereo not given), the T/C by setting is: (dose: 6.25 mg/kg/injection, schedule: Q01DX005 (ip), vehicle: saline with Tween-80) 110 % of control; (dose: 12.5 mg/kg/injection, schedule: Q01DX005 (ip), vehicle: saline with Tween-80) 96 % of control.
Regarding `Cc1ccc(CNc2cccnc2)cc1`, the T/C was 104 % of control (dose: 100.0 mg/kg/injection, schedule: Q04DX003 (ip), vehicle: saline with Tween-80); 95 % of control (dose: 200.0 mg/kg/injection, schedule: Q04DX003 (ip), vehicle: saline with Tween-80); 90 % of control (dose: 400.0 mg/kg/injection, schedule: Q04DX003 (ip), vehicle: saline with Tween-80).
Regarding `O=C1CC(c2ccc(OCN(CCCl)CCCl)cc2)CC(=O)C1CN(CCCl)CCCl` (stereo not given), the T/C (dose: 2.0 mg/kg/injection, schedule: Q01DX009 (ip), vehicle: Klucel (hydroxypropylcellulose) (HPC)) was 117 % of control; the T/C (dose: 4.0 mg/kg/injection, schedule: Q01DX009 (ip), vehicle: Klucel (hydroxypropylcellulose) (HPC)) was 160 % of control; the T/C (dose: 8.0 mg/kg/injection, schedule: Q01DX009 (ip), vehicle: Klucel (hydroxypropylcellulose) (HPC)) is 153 % of control; the T/C (dose: 16.0 mg/kg/injection, schedule: Q01DX009 (ip), vehicle: Klucel (hydroxypropylcellulose) (HPC)) is 166 % of control and 173 % of control; the T/C (dose: 32.0 mg/kg/injection, schedule: Q01DX009 (ip), vehicle: Klucel (hydroxypropylcellulose) (HPC)) was 190 % of control.
For the compound `Clc1ccc(C2C3CCN2CC3)cc1` (stereo not given), the T/C reads like this: (dose: 0.78 mg/kg/injection, schedule: Q01DX009 (ip), vehicle: saline) 100 % of control; (dose: 1.56 mg/kg/injection, schedule: Q01DX009 (ip), vehicle: saline) 96 % of control; (dose: 3.12 mg/kg/injection, schedule: Q01DX009 (ip), vehicle: saline) 94 % of control.
`CCCC(=O)NNCN1C(=O)c2ccccc2C1=O`: the T/C is 89 % of control under setting [1]; 86 % of control under setting [2]; 93 % of control (dose: 200.0 mg/kg/injection, schedule: Q01DX005 (ip), vehicle: Klucel (hydroxypropylcellulose) (HPC)).
As to `O=C1c2ccccc2C(=O)N1OCc1ccc(-c2ccccc2)cc1`, the T/C under setting [1] was 96 % of control and the T/C under setting [2] is 93 % of control.
Turning to `COC(=O)C(N)CSCSCc1ccccc1` (stereo not given), the T/C is 90 % of control (dose: 3.13 mg/kg/injection, schedule: Q01DX009 (ip), vehicle: water); 90 % of control (dose: 6.25 mg/kg/injection, schedule: Q01DX009 (ip), vehicle: water); 93 % of control (dose: 12.5 mg/kg/injection, schedule: Q01DX009 (ip), vehicle: water); 100 % of control (dose: 25.0 mg/kg/injection, schedule: Q01DX009 (ip), vehicle: saline); 90 % of control (dose: 25.0 mg/kg/injection, schedule: Q01DX009 (ip), vehicle: water); 98 % of control (dose: 50.0 mg/kg/injection, schedule: Q01DX009 (ip), vehicle: saline). Further, the T/C (dose: 50.0 mg/kg/injection, schedule: Q01DX009 (ip), vehicle: water) was 90 % of control and the T/C (dose: 100.0 mg/kg/injection, schedule: Q01DX009 (ip), vehicle: saline) is 101 % of control.
With `O=C(NCc1ccccc1)OCc1c(COC(=O)NCc2ccccc2)c(-c2ccc(Cl)c(Cl)c2)n2c1CCC2`, the T/C (dose: 3.13 mg/kg/injection, schedule: Q01DX009 (ip), vehicle: distilled water + Tween-80) was 105 % of control; the T/C (dose: 6.25 mg/kg/injection, schedule: Q01DX009 (ip), vehicle: distilled water + Tween-80) is 151 % of control; the T/C (dose: 12.5 mg/kg/injection, schedule: Q01DX009 (ip), vehicle: distilled water + Tween-80) is 158 % of control and 161 % of control; the T/C (dose: 25.0 mg/kg/injection, schedule: Q01DX009 (ip), vehicle: distilled water + Tween-80) is 160 % of control and 174 % of control; the T/C (dose: 50.0 mg/kg/injection, schedule: Q01DX009 (ip), vehicle: distilled water + Tween-80) is 164 % of control and 182 % of control; the T/C (dose: 100.0 mg/kg/injection, schedule: Q01DX009 (ip), vehicle: distilled water + Tween-80) is 194 % of control and 196 % of control.
Turning to `O=P(OCCN(CCOP(=O)(Oc1ccccc1)Oc1ccccc1)c1ccc2ccccc2c1)(Oc1ccccc1)Oc1ccccc1`, the T/C runs as follows: (dose: 50.0 mg/kg/injection, schedule: Q01DX009 (ip), vehicle: saline with Tween-80) 94 % of control; (dose: 100.0 mg/kg/injection, schedule: Q01DX009 (ip), vehicle: saline with Tween-80) 86 % of control; (dose: 200.0 mg/kg/injection, schedule: Q01DX009 (ip), vehicle: saline with Tween-80) 96 % of control.
`CC(=O)OCC12CCC(C)=CC1O[C@H]1[C@@H](OC(C)=O)[C@H](OC(C)=O)[C@]2(C)[C@@]12CO2` (stereo not given in full): the T/C (dose: 0.2 mg/kg/injection, schedule: Q01DX009 (ip), vehicle: saline + alcohol) is 115 % of control; the T/C (dose: 0.8 mg/kg/injection, schedule: Q01DX009 (ip), vehicle: saline + alcohol) was 173 % of control; the T/C (dose: 2.0 mg/kg/injection, schedule: Q04DX003 (ip), vehicle: saline + alcohol) is 120 % of control.
On to `COc1ccc(C(c2cc(C(C)(C)C)cc(C(C)(C)C)c2O)N(C)C)cc1` (stereo not given), for which the T/C (dose: 50.0 mg/kg/injection, schedule: Q01DX005 (ip), vehicle: distilled water + alcohol) is 103 % of control; the T/C (dose: 100.0 mg/kg/injection, schedule: Q01DX005 (ip), vehicle: distilled water + alcohol) was 103 % of control; the T/C (dose: 200.0 mg/kg/injection, schedule: Q01DX005 (ip), vehicle: distilled water + alcohol) was 105 % of control.

Values taken from PubChem BioAssay AID330 (DTP/NCI, 2004).
